According to patent US20240041899A1, “SOLID PREPARATION” (ASKA Pharmaceutical Co., Ltd., priority 2020, published 2024):

What was measured:
[1] = test system: lower urinary tract obstruction model of rats (female); assay: Test Example 1: urination function in lower urinary tract obstruction model of female rats; type: in vivo; settings: oral once a day 2 weeks, Compound A 10 mg/kg
From the text: (§1) A lower urinary tract obstruction model of rats was used as a test system. A test substance was orally administered to the lower urinary tract obstruction model repeatedly over two (2) weeks to examine the action on the urination function in the lower urinary tract obstruction model.
More specifically, the rats (female, Crl:CD(SD), 8-week-old; Charles River Laboratories Japan, Inc.) were operated to form lower urinary tract obstruction and repeatedly received oral administration of the test substance at a frequency of once a day over two (2) weeks. After the completion of the administration, each rat was subjected to bladder catheterization under anesthesia, cystometry under no anesthesia, then cystometry under urethane anesthesia, and euthanasia under deep anesthesia, and the tissues (bladder, kidney) of the rat were extracted or surgically removed. As a normal group, the rats without operation for forming lower urinary tract obstruction were used.
The test system, the test substances, and the dosage are as follows. • Normal group: 0.5 v/v % Polysorbate 80 solution, 10 mL/kg (n=6) • Solvent group (control group): 0.5 v/v % Polysorbate 80 solution, 10 mL/kg (n=15) • Group A: Compound A, 10 mg/kg (n=15) • Group B3: Compound B, 3 mg/kg (n=7) • Group B10: Compound B, 10 mg/kg (n=7)
After urination, the residual urine was aspirated from the outlet end of the catheter placed in the bladder to measure the volume (mL) of the residual urine.
After urination, the weight of the voided urine was measured to determine the voided volume (g=mL), and then the urination efficiency was calculated by the following equation: Urination efficiency (%)=[(Voided volume (mL))/(Voided volume (mL)+Residual urine volume (mL))]×100
Bladder capacity (mL)=Voided volume (mL)+Residual urine volume (mL)
Moreover, the wet weight of the extracted bladder and that of the extracted kidney were measured.

[2] = test system: lower urinary tract obstruction model of rats (male); assay: Test Example 2: urination function in lower urinary tract obstruction model of male rats; type: in vivo; settings: oral once a day 14 days, 10 mg/kg, in comparison with Group C (dutasteride 0.5 mg/kg)
From the text: as §1, with “14 days” for “two (2) weeks”, “model. The lower urinary tract obstruction model is not a benign prostatic hyperplasia model with enlarged prostate.” for “model.”
More specifically, the rats (male, Crl:CD(SD), 8-week-old; Charles River Laboratories Japan, Inc.) were operated to form lower urinary tract obstruction and repeatedly received oral administration of the test substance at a frequency of once a day over 14 days. After the completion of the administration, each rat was subjected to bladder catheterization under anesthesia and cystometry under no anesthesia and was evaluated for the residual urine volume and the urination efficiency.
The test substances and the dosage in the test system (male rats with lower urinary tract obstruction) are as follows. • Solvent group (control group): 0.5 v/v % Polysorbate 80 solution, 10 mL/kg (n=8) • Group A: Compound A, 10 mg/kg (n=12) • Group C: Compound C (dutasteride), 0.5 mg/kg (n=11)

[3] = female rats, lower urinary tract obstruction, vs control group

SMILES: CC(=O)O[C@]1(C(C)=O)C[C@@H](O)[C@H]2[C@@H]3C=C(Cl)C4=CC(=O)OC[C@]4(C)[C@H]3CC[C@@]21C [Compound A, 17α-acetoxy-6-chloro-15β-hydroxy-2-oxa-4,6-pregnadiene-3,20-dione]
- survival rate ([1]; female lower urinary tract obstruction rats): no decrease
- wet weights of the bladder and the kidney ([1]; female rats, lower urinary tract obstruction): in the direction of significantly inhibiting the increase
- residual urine volume ([1]; female rats, lower urinary tract obstruction, vs control (solvent) group): significantly decreased
- bladder capacity [1, 3]: significantly decreased
- urination efficiency [1, 3]: increased
- urination function (the residual urine volume, the urination efficiency) [2]: strong improvement action
